Converted amounts (≈) assume the structure as drawn.
Columns and labels:
Format in all cases: functional, organism-based
[1] = tested on: Murid betaherpesvirus 1; test: Antiviral activity against mouse cytomegalovirus by plaque-neutralization assay
[2] = tested on: Human betaherpesvirus 5; test: Antiviral activity against human cytomegalovirus by plaque-neutralization assay
[3] = tested on: Murid betaherpesvirus 1; test: Antiviral activity against mouse cytomegalovirus assessed as effect on virus-induced cytopathic effect
[4] = tested on: Human alphaherpesvirus 2; test: Antiviral activity against herpes simplex virus type 2 assessed as effect on virus-induced cytopathic effect
[5] = tested on: Influenza A virus; test: Antiviral activity against influenza A virus by hemadsorption inhibition assay
[6] = tested on: Respiratory syncytial virus; test: Antiviral activity against respiratory syncytial virus assessed as effect on virus-induced cytopathic effect; details: human respiratory syncytial virus

| Compound | EC50 [1] [µg/mL] | EC50 [2] [µg/mL] | EC50 [3] [µg/mL] | further results |
| --- | --- | --- | --- | --- |
| CC(C)(COC(=O)c1ccc2c(c1)OCO2)CC1=C(O)C(=O)c2ccccc2C1=O | 9.5 (≈ 23.3 µM) | 0.22 (≈ 0.539 µM) | 9.5 (≈ 23.3 µM) |  |
| Nc1nc2c(ncn2COCCO)c(=O)[nH]1 [ACYCLOVIR] |  |  |  | EC50 [4]: 2.3 µg/mL (≈ 10.2 µM) |
| NC12CC3CC(CC(C3)C1)C2 [AMANTADINE] |  |  |  | EC50 [5]: 0.054 µg/mL (≈ 0.357 µM) |
| Nc1nc2c(ncn2COC(CO)CO)c(=O)[nH]1 [GANCICLOVIR] | 13.8 (≈ 54.1 µM) | 3.4 (≈ 13.3 µM) | 5 (≈ 19.6 µM) |  |
| C/C=C(\C)CC/C=C(\C)C(=O)OCC(C)(C)CC1=C(O)C(=O)c2ccccc2C1=O [RHINACANTHIN C] | 0.57 (≈ 1.39 µM) | 0.02 (≈ 0.0487 µM) | 1.1 (≈ 2.68 µM) |  |
| NC(=O)c1ncn([C@@H]2O[C@H](CO)[C@@H](O)[C@H]2O)n1 [RIBAVIRIN] |  |  |  | EC50 [6]: 1.8 µg/mL (≈ 7.37 µM) |
